Test results from US20190187129A1, “CANCER MODELING PLATFORMS AND METHODS OF USING THE SAME” (Wake Forest University Health Sciences, priority 2016, published 2019).
“Also recorded” adds a separate entry of the source.

Legend:
HCT116 organoids = experiment: Biomarker-driven drug study on control organoids (MTS, Annexin V/Ki67 IHC, H&E); type: cell-based; details: 0.1 μM, 1 μM, 10 μM; 96 hours
Description: (§1) 5 μm thick organoid sections were created from paraffin-embedded constructs, and then deparaffinized for staining. IHC was used to visualize biomarkers cytokeratin 5/6 (CK5/6), calretinin, and thrombomodulin. Blocking was performed by incubation under Dako Protein Block for 15 minutes. Primary antibodies CK5/6 (Abcam, ab17133, raised in mouse) and calretinin (Abcam, ab702, raised in rabbit) or CK5/6 and thrombomodulin (Abcam, ab109189, raised in rabbit) were applied to the sections on the slides at a 1:200 dilution in Dako Antibody Diluent and incubated at room temperature for 1 hour. Next, secondary Alexa Fluor 488 or Alexa Fluor 594 antibodies with appropriate species reactivity were applied to all samples at 1:200 in Dako Antibody Diluent and left at room temperature for 1 hour (anti-mouse Alexa Fluor 488 and anti-rabbit Alexa Fluor 594, Life Technologies, Carlsbad, Calif., A-11070). Sections were then incubated with Dapi for 5 minutes prior to coverslipping. […] Fluorescence images were taken using a Leica DM400B Compound Microscope and overlaid for analysis.
(§2) Tumor constructs were biofabricated once more, after which they were maintained for 3 days prior to drug screening. […] Drug effects were quantified by MTS assays and immunohistochemistry. MTS assays (CellTiter 96 One Solution Reagent Promega, Madison, Wis.) determined relative cell number by quantifying mitochondrial metabolism. Absorbance values were determined on a Molecular Devices SpectrumMax M5 (Molecular Devices) tunable plate reader system at a wavelength of 490 nm.
(§3) Immunohistochemisty staining was performed using biomarkers Annexin V and Ki67 on 5 μm thick organoid sections. […] Fluorescence images were taken using a Leica DM400B Compound Microscope, images were taken of sections next to each other in GFP for Annexin V and Ki67 and overlaid for analysis; Annexin V images were colored red (medium grey in black and white images) and Ki67 images were colored green (light grey in black and white images).

mesothelioma organoids = experiment: Biomarker-driven drug study on patient organoids (MTS, Annexin V/Ki67 IHC, H&E); type: cell-based, human; details: 0.1 μM, 1 μM, 10 μM; 96 hours
Description: as §1, §2, §3

HCT116 cells = details: literature reference 31; cited from earlier work

## Nc1nccc2c1ncn2[C@@H]1C=C(CO)[C@@H](O)[C@H]1O [DZNep, 3-deazaneplanocin A]
HCT116 organoids
  Annexin V and Ki67 immunohistochemistry: minimal change in proliferation
  Hematoxylin and eosin staining, cell morphology: not present in any HCT116 treatments; also recorded: do not show this dose dependent change
  proliferation / mitochondrial metabolism (MTS assay): no significant decrease in HCT116 proliferation; also recorded: little effect; also recorded: do not appear to respond negatively
Mesothelioma organoids
  Annexin V and Ki67 immunohistochemistry: Annexin V appears to increase in mesothelioma with increase in DZNep concentration; also recorded: increasing trend in annexin V expression; also recorded: higher ratios of Annexin V to Ki67
  Hematoxylin and eosin staining, cell morphology: ghost cells and those without nuclei; also recorded: loss of normal morphology and appearance of ghost cells with no nuclei
  proliferation / mitochondrial metabolism (MTS assay): significant decrease in mesothelioma proliferation; also recorded: decrease in mitochondrial metabolism; also recorded: decreased mitochondrial metabolism
HCT116 cells
  effect on HCT116 cells upon treatment: cell cycle arrest, but not necessarily significant levels of cell death
